Test results as given in patent publication US20190008803A1, “COMBINATIONS OF OPIOID RECEPTOR LIGANDS AND CYTOCHROME P450 INHIBITORS” (TREVENA, INC., priority 2015, published 2019).

Tests used:
mice = assay: Hot plate assay for antinociception, subcutaneous dosing; format: in vivo, mouse; conditions: for ED50: 0.5 h, re-tested 30 min after drug administration; for ED50 / analgesic effect in the mouse hot plate assay compared to morphine: SC
Procedure: The hot plate assay is adapted from the procedure originally described by O'Callaghan and Holtzman (JPET, 192, 497, 1975) and is commonly used to determine the potential analgesic efficacy of opioid agonists. The antinociceptive effect of the composition(s) described herein in the hot plate is expressed in % MPE (Maximum Possible Effect).
Rats (175-250 g) or mice (20-30 g) acclimated to the vivarium for at least 48 hr prior to behavioral testing. Test drugs were administered by the subcutaneous (SC) route. Animals were placed on the hot plate, which the temperature was set at 50-56° C., depending on the in vitro potency of the compound. A cutoff time of 30-60 seconds was used depending on the temperature of the hot plate so that the paws of the animal displaying analgesia, was not damaged by the heat stimulus. The cutoff time was considered a 100% response to the thermal insult. Prior to drug treatment, each animal was tested to determine the baseline response. Thirty minutes after drug administration, animals were re-tested. Dose response experiments were performed to evaluate the potency of the test compound when various doses were administered at the point when maximal analgesia is observed.
The % MPE was calculated according to the following formula:
% MPE=[(Post drug latency−baseline latency)/(60 or 30−baseline latency)]×100
ED50 values were calculated from the mean % MPE values for each group using log dose-response curves by least-squares regression analysis.

[1] = Oral availability in humans with low versus normal CYP2D6 activity; format: in vivo; conditions: human with low CYP2D6 activity compared to humans with normal CYP2D6 activity (data not shown)
CYP3A4 = target: T1, CYP3A4 (Homo sapiens, UniProt P08684); assay: Metabolic stability in human liver microsomes with/without troleandomycin: percent contribution of CYP3A4; format: in vitro ADME; conditions: human liver microsomes 0.25 mg/mL, test compound 1 μM, troleandomycin 50 μM; from intrinsic clearance without and with inhibitor
T1 construct: incubations of test compound (1 μM) with human liver microsomes (0.25 mg/mL); from tissue; host or cells: human liver microsomes
T1 sequence (P08684 whole entry): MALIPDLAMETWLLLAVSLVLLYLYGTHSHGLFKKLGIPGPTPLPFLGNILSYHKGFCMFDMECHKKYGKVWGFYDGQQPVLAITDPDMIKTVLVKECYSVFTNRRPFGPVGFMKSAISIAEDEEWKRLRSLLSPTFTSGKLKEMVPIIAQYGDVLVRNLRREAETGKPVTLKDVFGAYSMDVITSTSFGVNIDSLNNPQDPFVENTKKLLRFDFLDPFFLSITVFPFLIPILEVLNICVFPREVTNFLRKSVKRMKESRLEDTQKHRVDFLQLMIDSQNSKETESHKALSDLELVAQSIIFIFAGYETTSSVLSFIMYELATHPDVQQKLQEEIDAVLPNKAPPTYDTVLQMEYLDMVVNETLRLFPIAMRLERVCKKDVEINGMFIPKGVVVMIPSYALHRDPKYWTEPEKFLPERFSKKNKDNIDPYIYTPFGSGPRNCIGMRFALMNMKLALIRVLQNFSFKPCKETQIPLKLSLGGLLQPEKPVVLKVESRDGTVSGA
Procedure: (§1) Compounds 141, 208, 246, 265, 267, 271 or 277 were analyzed to determine whether they are metabolized by CYP2D6 and/and/or CYP3A4. The studies were designed to evaluate the metabolic stability of compounds in human liver microsomes for the purpose of determining the percent contribution of CYP2D6 and CYP3A4 to their in vitro metabolism. […] Incubations are performed with or without CYP specific inhibitors. Incubations with the CYP2D6 direct inhibitor, quinidine (1 μM) quantify the percent contribution of CYP2D6 to metabolism. Incubations with the CYP3A4 metabolism-dependent inhibitor, troleandomycin (50 μM), define the percent contribution of CYP3A4. The percentage of CYP2D6 and CYP3A4 contribution is calculated using intrinsic clearance values in the absence and presence of the specific CYP inhibitor (Gibbs et al. 2006).

CYP2D6 = target: T2, CYP2D6 (Homo sapiens, UniProt P10635); assay: Metabolic stability in human liver microsomes with/without quinidine: percent contribution of CYP2D6; format: in vitro ADME; conditions: human liver microsomes 0.25 mg/mL, test compound 1 μM, quinidine 1 μM; from intrinsic clearance without and with inhibitor
T2 construct: incubations of test compound (1 μM) with human liver microsomes (0.25 mg/mL); from tissue; host or cells: human liver microsomes
T2 sequence (P10635 whole entry): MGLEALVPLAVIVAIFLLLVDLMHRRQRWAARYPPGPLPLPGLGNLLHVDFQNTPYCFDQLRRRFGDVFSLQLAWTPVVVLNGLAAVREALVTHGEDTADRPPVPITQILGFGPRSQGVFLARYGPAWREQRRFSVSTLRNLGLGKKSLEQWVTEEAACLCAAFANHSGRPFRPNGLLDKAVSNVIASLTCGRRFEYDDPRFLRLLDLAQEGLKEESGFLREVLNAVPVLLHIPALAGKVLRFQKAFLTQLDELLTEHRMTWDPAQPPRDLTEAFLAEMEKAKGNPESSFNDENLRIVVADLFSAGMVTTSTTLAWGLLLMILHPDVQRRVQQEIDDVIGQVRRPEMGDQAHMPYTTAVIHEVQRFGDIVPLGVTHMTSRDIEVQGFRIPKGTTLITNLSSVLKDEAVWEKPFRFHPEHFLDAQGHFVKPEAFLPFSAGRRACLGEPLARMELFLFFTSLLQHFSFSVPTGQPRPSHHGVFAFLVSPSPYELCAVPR
Procedure: as §1

For `c1ccc(CNCC[C@@]2(c3ccccn3)CCOC3(CCCC3)C2)cc1` [Compound 28], the ED50 (mice; mouse hot plate) was 1.2 mg/kg and the “analgesic effect in the mouse hot plate assay compared to morphine” value (mice) was “more robust analgesic effect”.

For `Fc1ccc([C@]2(CCNCc3ccccc3)CCOC3(CCCC3)C2)cc1` [Compound 81, benzyl({2-[(9R)-9-(4-fluorophenyl)-6-oxaspiro[4.5]decan-9-yl]ethyl})amine], the “% MPE” value (mice; mouse hot plate, at 10 mg/kg SC) was 100% at 10.

For `Cc1cccc(CNCC[C@@]2(c3ccc(F)cc3)CCOC3(CCCC3)C2)c1` [Compound 122, {2-[(9R)-9-(4-fluorophenyl)-6-oxaspiro[4.5]decan-9-yl]ethyl}[(3-methylphenyl)methyl]amine], the ED50 (mice; mouse hot plate) was 1.1 mg/kg and the “analgesic effect in the mouse hot plate assay compared to morphine” value (mice) was “more robust analgesic effect”.

In the case of `COc1ccsc1CNCC[C@@]1(c2ccccn2)CCOC2(CCCC2)C1` [Compound 140, [(3-methoxythiophen-2-yl)methyl]({2-[(9R)-9-(pyridin-2-yl)-6-oxaspiro[4.5]decan-9-yl]ethyl})amine], the oral availability [1] is reported as “substantially higher oral availability”, the CYP3A4 contribution (CYP3A4) is reported as 50% and the CYP2D6 contribution (CYP2D6) is reported as 50%.

For `Cc1ccc(CNCC[C@@]2(c3ccc(F)cc3)CCOC3(CCCC3)C2)s1` [Compound 145], the ED50 (mice; mouse hot plate) was 5.9 mg/kg.

In the case of `Brc1csc(CNCC[C@@]2(c3ccccn3)CCOC3(CCCC3)C2)c1` [Compound 208], the CYP3A4 contribution (CYP3A4) is reported as 17% and the CYP2D6 contribution (CYP2D6) is reported as 3%.

With `Cc1cccc(CNCC[C@@]2(c3ccccn3)CCOC3(CCCC3)C2)c1` [Compound 246] the CYP3A4 contribution (CYP3A4) was 25% and the CYP2D6 contribution (CYP2D6) was 80%.

For `Fc1cncc(CNCC[C@@]2(c3ccccn3)CCOC3(CCCC3)C2)c1` [Compound 265], the CYP3A4 contribution (CYP3A4) was over 50%.

With `Clc1cncc(CNCC[C@@]2(c3ccccn3)CCOC3(CCCC3)C2)c1` [Compound 267] the CYP3A4 contribution (CYP3A4) was 55% and the CYP2D6 contribution (CYP2D6) was 8%.

`FC(F)(F)c1cncc(CNCC[C@@]2(c3ccccn3)CCOC3(CCCC3)C2)c1` [Compound 271] showed a CYP3A4 contribution (CYP3A4) of 45% and a CYP2D6 contribution (CYP2D6) of 3%.

Compound `FC(F)(F)c1ccnc(CNCC[C@@]2(c3ccccn3)CCOC3(CCCC3)C2)c1` [Compound 277] has a CYP3A4 contribution (CYP3A4) of over 50% and a CYP2D6 contribution (CYP2D6) of over 20%.

In the case of `CN1CC[C@]23c4c5ccc(O)c4O[C@H]2[C@@H](O)C=C[C@H]3[C@H]1C5` [Morphine, reference compound], the ED50 (mice; mouse hot plate) is reported as 3.8 mg/kg and the “efficacy in the mouse hot plate” value (mice; at a dose of 10 mg/kg SC) is reported as “full efficacy”.
